From ChEMBL document CHEMBL1149919, “Inhibition of human rhinovirus 3C protease by homophthalimides” (Bioorg Med Chem Lett, 1997) come the findings set out here.

Each structure is given as a SMILES string. pIC50: −log10 of the molar value. A value given as a limit tells only on which side of the number the result lay.

The test system of one data set is HeLa. Kind of data set: Antiviral activity in a one-cycle viral replication assay against HRV-14 (human rhinovirus) infected HeLa cells. Format: functional, cell-based.
A short description of data set [1]: Cytotoxic effect against HeLa cell line measured by XTT assay. The class given is cell-based. Conditions: human, HeLa cells; read-out: TC50 (the source's name). Background: Tetrazolium dyes change colour on reduction, which living cells bring about.
Data set [2] addresses T1, Human rhinovirus A protease (Human rhinovirus sp., UniProt Q4U254).
T1 sequence (Q4U254 whole entry): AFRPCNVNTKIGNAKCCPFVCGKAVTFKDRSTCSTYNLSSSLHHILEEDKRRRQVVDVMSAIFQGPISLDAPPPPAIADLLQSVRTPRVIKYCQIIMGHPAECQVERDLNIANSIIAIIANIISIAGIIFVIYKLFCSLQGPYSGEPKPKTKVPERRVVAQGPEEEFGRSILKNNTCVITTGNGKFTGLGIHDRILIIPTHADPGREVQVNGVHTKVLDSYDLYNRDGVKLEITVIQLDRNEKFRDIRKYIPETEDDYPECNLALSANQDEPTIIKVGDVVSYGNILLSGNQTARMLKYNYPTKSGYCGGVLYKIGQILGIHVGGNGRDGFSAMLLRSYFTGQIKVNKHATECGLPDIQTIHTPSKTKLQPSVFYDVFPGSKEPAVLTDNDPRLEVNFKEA
Kind of data set: The compound was tested for the inhibitory activity against HRV-14 (human rhinovirus) Protease 3C.

The target of data set [3] is T2, Human rhinovirus A protease (Human rhinovirus sp.) (UniProt Q4U254).
T2 sequence (whole entry): T1 sequence (Q4U254 whole entry)
Kind of data set: Inhibition of Protease 3C of HRV-14 (human rhinovirus). Also noted: concentration or dose not given beside the values. The following applies: Rhinovirus B; concentration not given here.

Data set [4] in a line: Therapeutic index was determined. The following applies: read-out: TI.

As for `CSCCCN1C(=O)c2ccccc2C(CC(=O)c2ccccc2)C1=O` (stereo unspecified), the pIC50 – broadly, −log10 of the IC50, conventionally taken in molar units – in the data set with HeLa was below 5.00; in data set [2], 3.88. Moreover, in data set [1], the CC50 turned out to be 63 µM. Besides, the inhibition (in general, the share of the control response that was lost under treatment) in data set [3] was 35%.

Consider `CSCCN1C(=O)Cc2ccccc2C1=O`, for which the inhibition in data set [3] stood at 13%.

`CCOC(=O)CCN1C(=O)Cc2ccccc2C1=O`: the inhibition in data set [3] turned out to be 13%.

With `CS(=O)(=O)CCN1C(=O)Cc2ccccc2C1=O`, the inhibition in data set [3] amounted to 6%.

Regarding `CN1C(=O)Cc2ccccc2C1=O`, the inhibition in data set [3] turned out to be 14%.

In data set [3], `C[S+]([O-])CCN1C(=O)Cc2ccccc2C1=O` (stereo unspecified) came in with an inhibition of 19%.

With `CN1C(=O)c2ccccc2C(CC(=O)c2ccc(F)cc2)C1=O` (stereo unspecified), the figures for the pIC50 (in the data set with HeLa; in data set [2]) were below 5.00 and 4.39, respectively. In data set [1], the CC50 is above 100 µM. Further, the inhibition in data set [3] amounted to 72%.

Take `CSCCCN1C(=O)Cc2ccccc2C1=O`: in data set [3], the inhibition was 16%.

Molecule `CCOC(=O)CCN1C(=O)c2ccccc2C(C(C)=O)C1=O` (stereo unspecified) showed an inhibition in data set [3] of 8%.

In data set [3], `NC(=O)CCN1C(=O)Cc2ccccc2C1=O` gave an inhibition of 11%.

In data set [3], `O=C(O)CCN1C(=O)Cc2ccccc2C1=O` gave an inhibition of 0%.

As to `CCOC(=O)CCN1C(=O)c2ccccc2C(CC(=O)c2ccccc2)C1=O` (stereo unspecified), the pIC50 in the data set on HeLa was 5.22; in data set [2], 4.26. Further, the CC50 in data set [1] was above 100 µM. This molecule also returned an inhibition in data set [3] of 71%. In data set [4], the selectivity ratio was 16.7.

Turning to `CS(=O)(=O)CCN1C(=O)c2ccccc2C(CC(=O)c2ccccc2)C1=O` (stereo unspecified), the pIC50 was 5.07 in the data set with HeLa and 4.66 in data set [2]. For the same molecule, the CC50 in data set [1] came to 70.5 µM. The molecule further gave an inhibition in data set [3] of 100%. In addition, the selectivity ratio in data set [4] is 8.3.

Take `CS(=O)(=O)CCCN1C(=O)c2ccccc2C(CC(=O)c2ccccc2)C1=O` (stereo unspecified): the pIC50 in the data set with HeLa was below 5.00; in data set [2] it was 4.60. Also, the CC50 in data set [1] was above 100 µM. This molecule came in with an inhibition in data set [3] of 70%.
